Results reported in PubChem BioAssay AID256 (DTP/NCI, 2004).
Where “and” joins values, the source holds several entries; their conditions need not be identical. Identical values can stand only once. Inconclusive results and toxic doses are left out.

Tested on: CD2F1 mice, L1210 leukemia ip, survival T/C
Assay: NCI In Vivo Anticancer Drug Screen. Data for tumor model L1210 Leukemia (intraperitoneal) in CD2F1 (CDF1) mice
Settings: higher = longer survival
In short: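 Mice carrying a transplanted tumor received test compound or vehicle alone. The value is the measurement in the treated group divided by that in the vehicle-treated control group.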

[1] = endpoint: mean survival time, dose: 100.0 mg/kg/injection, schedule: Q04DX002 (ip), vehicle: saline with Tween-80
[2] = endpoint: mean survival time, dose: 200.0 mg/kg/injection, schedule: Q04DX002 (ip), vehicle: saline with Tween-80
[3] = endpoint: mean survival time, dose: 400.0 mg/kg/injection, schedule: Q04DX002 (ip), vehicle: saline with Tween-80
[4] = endpoint: mean survival time, dose: 100.0 mg/kg/injection, schedule: Q04DX003 (ip), vehicle: saline with Tween-80
[5] = endpoint: mean survival time, dose: 200.0 mg/kg/injection, schedule: Q04DX003 (ip), vehicle: saline with Tween-80
[6] = endpoint: mean survival time, dose: 400.0 mg/kg/injection, schedule: Q04DX003 (ip), vehicle: saline with Tween-80
[7] = endpoint: mean survival time, dose: 12.5 mg/kg/injection, schedule: Q01DX009 (ip), vehicle: saline with Tween-80
[8] = endpoint: mean survival time, dose: 25.0 mg/kg/injection, schedule: Q01DX009 (ip), vehicle: saline with Tween-80
[9] = endpoint: mean survival time, dose: 50.0 mg/kg/injection, schedule: Q01DX009 (ip), vehicle: saline with Tween-80
[10] = endpoint: mean survival time, dose: 100.0 mg/kg/injection, schedule: Q01DX009 (ip), vehicle: saline with Tween-80
[11] = endpoint: mean survival time, dose: 200.0 mg/kg/injection, schedule: Q01DX009 (ip), vehicle: saline with Tween-80

In the case of `C[CH2][Pb]([CH2]C)([CH2]C)[O]C(=O)COc1ccccc1`, the T/C (endpoint: mean survival time, dose: 1.5 mg/kg/injection, schedule: Q04DX003 (ip), vehicle: Klucel (hydroxypropylcellulose) (HPC)) is reported as 104 % of control, the T/C (endpoint: mean survival time, dose: 3.0 mg/kg/injection, schedule: Q04DX003 (ip), vehicle: Klucel (hydroxypropylcellulose) (HPC)) is reported as 97 % of control and the T/C (endpoint: mean survival time, dose: 6.0 mg/kg/injection, schedule: Q04DX003 (ip), vehicle: Klucel (hydroxypropylcellulose) (HPC)) is reported as 100 % of control. The T/C (endpoint: mean survival time, dose: 12.0 mg/kg/injection, schedule: Q04DX003 (ip), vehicle: Klucel (hydroxypropylcellulose) (HPC)) was 104 % of control and the T/C (endpoint: mean survival time, dose: 24.0 mg/kg/injection, schedule: Q04DX003 (ip), vehicle: Klucel (hydroxypropylcellulose) (HPC)) was 86 % of control.

For `CN(C)C(=O)Nc1cccc2ccccc12`, the T/C [1] was 94 % of control, the T/C [2] was 105 % of control and the T/C [3] was 90 % of control.

For `Cc1cc(S(N)(=O)=O)c(N)c(S(N)(=O)=O)c1`, the T/C [4] was 96 % of control, the T/C [5] was 93 % of control and the T/C [6] was 102 % of control.

For `CCN(CC)CCN(C)N=Nc1ccccc1C(=O)NN`, the T/C (endpoint: mean survival time, dose: 72.0 mg/kg/injection, schedule: Q01DX001 (ip), vehicle: saline) was 105 % of control and the T/C (endpoint: mean survival time, dose: 145.0 mg/kg/injection, schedule: Q01DX001 (ip), vehicle: saline) was 100 % of control.

With `COc1ccc2c(c1OC(C)=O)-c1cc(OC(C)=O)cc3c1C(C2)N(C(=O)CCl)CC3` (stereo not drawn) the T/C (endpoint: mean survival time, dose: 25.0 mg/kg/injection, schedule: Q04DX003 (ip), vehicle: DMSO) was 101 % of control, the T/C (endpoint: mean survival time, dose: 50.0 mg/kg/injection, schedule: Q04DX003 (ip), vehicle: DMSO) was 96 % of control and the T/C (endpoint: mean survival time, dose: 100.0 mg/kg/injection, schedule: Q04DX003 (ip), vehicle: DMSO) was 101 % of control.

With `C=COCCCCCCCCCCCCCCCCCC` the T/C (endpoint: mean survival time, dose: 100.0 mg/kg/injection, schedule: Q04DX003 (ip), vehicle: other) was 108 % of control, the T/C (endpoint: mean survival time, dose: 200.0 mg/kg/injection, schedule: Q04DX003 (ip), vehicle: other) was 108 % of control and the T/C (endpoint: mean survival time, dose: 400.0 mg/kg/injection, schedule: Q04DX003 (ip), vehicle: other) was 98 % of control.

With `O=c1oc2c(O)c(O)cc3c(=O)oc4c(O)c(O)cc1c4c23` the T/C (endpoint: mean survival time, dose: 12.5 mg/kg/injection, schedule: Q01DX009 (ip), vehicle: Klucel (hydroxypropylcellulose) (HPC)) was 100 % of control, the T/C (endpoint: mean survival time, dose: 25.0 mg/kg/injection, schedule: Q01DX009 (ip), vehicle: Klucel (hydroxypropylcellulose) (HPC)) was 113 % of control and the T/C (endpoint: mean survival time, dose: 50.0 mg/kg/injection, schedule: Q01DX009 (ip), vehicle: Klucel (hydroxypropylcellulose) (HPC)) was 113 % of control. For the same compound, the T/C (endpoint: mean survival time, dose: 100.0 mg/kg/injection, schedule: Q01DX009 (ip), vehicle: Klucel (hydroxypropylcellulose) (HPC)) was 106 % of control, the T/C (endpoint: mean survival time, dose: 200.0 mg/kg/injection, schedule: Q01DX009 (ip), vehicle: Klucel (hydroxypropylcellulose) (HPC)) was 95 % of control and the T/C (endpoint: mean survival time, dose: 400.0 mg/kg/injection, schedule: Q01DX009 (ip), vehicle: Klucel (hydroxypropylcellulose) (HPC)) was 103 % of control.

In the case of `O=C1C=C(c2ccccc2)C(=O)C(c2ccccc2)=C1c1ccccc1`, the T/C [1] is reported as 94 % of control, the T/C [2] is reported as 94 % of control and the T/C [3] is reported as 90 % of control.

For `CN1CC(C(=O)NC(C)(C)C)CC(c2ccccc2)C1` (stereo not drawn), the T/C (endpoint: mean survival time, dose: 6.25 mg/kg/injection, schedule: Q01DX001 (ip), vehicle: saline with Tween-80) was 102 % of control, the T/C (endpoint: mean survival time, dose: 12.5 mg/kg/injection, schedule: Q01DX001 (ip), vehicle: saline with Tween-80) was 106 % of control and the T/C (endpoint: mean survival time, dose: 25.0 mg/kg/injection, schedule: Q01DX001 (ip), vehicle: saline with Tween-80) was 100 % of control.

With `[N-]=[N+]=NC1CCOC(n2cnc3c(N)ncnc32)C1O` (stereo not drawn) the T/C (endpoint: median survival time, dose: 25.0 mg/kg/injection, schedule: Q01DX005 (ip), vehicle: Klucel (hydroxypropylcellulose) (HPC)) was 102 % of control, the T/C (endpoint: median survival time, dose: 25.0 mg/kg/injection, schedule: Q01DX005 (ip), vehicle: Klucel + Tween-80) was 101 % of control and the T/C (endpoint: median survival time, dose: 50.0 mg/kg/injection, schedule: Q01DX005 (ip), vehicle: Klucel (hydroxypropylcellulose) (HPC)) was 100 % of control. For the same compound, the T/C (endpoint: median survival time, dose: 50.0 mg/kg/injection, schedule: Q01DX005 (ip), vehicle: Klucel + Tween-80) was 101 % of control, the T/C (endpoint: median survival time, dose: 100.0 mg/kg/injection, schedule: Q01DX005 (ip), vehicle: Klucel (hydroxypropylcellulose) (HPC)) was 108 % of control and the T/C (endpoint: median survival time, dose: 100.0 mg/kg/injection, schedule: Q01DX005 (ip), vehicle: Klucel + Tween-80) was 102 % of control. For the same compound, the T/C (endpoint: median survival time, dose: 200.0 mg/kg/injection, schedule: Q01DX005 (ip), vehicle: Klucel (hydroxypropylcellulose) (HPC)) was 102 % of control and the T/C (endpoint: median survival time, dose: 200.0 mg/kg/injection, schedule: Q01DX005 (ip), vehicle: Klucel + Tween-80) was 102 % of control.

For `CC(C)(C)/C=N/Nc1ccc([N+](=O)[O-])cc1[N+](=O)[O-]`, the T/C (endpoint: mean survival time, dose: 100.0 mg/kg/injection, schedule: Q04DX003 (ip), vehicle: acetone) was 97 % of control, the T/C (endpoint: mean survival time, dose: 200.0 mg/kg/injection, schedule: Q04DX003 (ip), vehicle: acetone) was 101 % of control and the T/C (endpoint: mean survival time, dose: 400.0 mg/kg/injection, schedule: Q04DX003 (ip), vehicle: acetone) was 97 % of control.

With `COC(=O)Nc1nc2ccc(C(=O)c3cccs3)cc2[nH]1` the T/C (endpoint: mean survival time, dose: 10.0 mg/kg/injection, schedule: Q04DX003 (ip), vehicle: Klucel (hydroxypropylcellulose) (HPC)) was 105 % of control, the T/C (endpoint: mean survival time, dose: 10.0 mg/kg/injection, schedule: Q04DX003 (ip), vehicle: other) was 107 % of control and the T/C (endpoint: mean survival time, dose: 20.0 mg/kg/injection, schedule: Q04DX003 (ip), vehicle: Klucel (hydroxypropylcellulose) (HPC)) was 110 % of control. For the same compound, the T/C (endpoint: mean survival time, dose: 40.0 mg/kg/injection, schedule: Q04DX003 (ip), vehicle: Klucel (hydroxypropylcellulose) (HPC)) was 120 % of control, the T/C (endpoint: mean survival time, dose: 40.0 mg/kg/injection, schedule: Q04DX003 (ip), vehicle: other) was 110 % of control and the T/C (endpoint: mean survival time, dose: 60.0 mg/kg/injection, schedule: Q04DX003 (ip), vehicle: saline) was 221 % of control. For the same compound, the T/C (endpoint: mean survival time, dose: 80.0 mg/kg/injection, schedule: Q04DX003 (ip), vehicle: Klucel (hydroxypropylcellulose) (HPC)) was 98 % of control and the T/C (endpoint: mean survival time, dose: 90.0 mg/kg/injection, schedule: Q04DX003 (ip), vehicle: saline) was 121 % of control.

In the case of `NC(=O)c1c(F)c(F)c(Oc2c(F)c(F)c(Oc3c(F)c(F)c(C(N)=O)c(F)c3F)c(F)c2F)c(F)c1F`, the T/C [7] is reported as 103 % of control, the T/C (endpoint: mean survival time, dose: 12.5 mg/kg/injection, schedule: Q04DX003 (ip), vehicle: saline with Tween-80) is reported as 101 % of control and the T/C [8] is reported as 100 % of control. For the same compound, the T/C (endpoint: mean survival time, dose: 25.0 mg/kg/injection, schedule: Q04DX003 (ip), vehicle: saline with Tween-80) was 101 % of control, the T/C [9] was 101 % of control and the T/C (endpoint: mean survival time, dose: 50.0 mg/kg/injection, schedule: Q04DX003 (ip), vehicle: saline with Tween-80) was 98 % of control.

`FCCc1ccccc1` was tested, and the T/C (endpoint: mean survival time, dose: 50.0 mg/kg/injection, schedule: Q04DX003 (ip), vehicle: saline sonified) was 98 % of control, the T/C (endpoint: mean survival time, dose: 100.0 mg/kg/injection, schedule: Q01DX001 (ip), vehicle: saline with Tween-80) was 97 % of control and 94 % of control and the T/C (endpoint: mean survival time, dose: 100.0 mg/kg/injection, schedule: Q04DX003 (ip), vehicle: saline sonified) was 98 % of control. For the same compound, the T/C (endpoint: mean survival time, dose: 200.0 mg/kg/injection, schedule: Q01DX001 (ip), vehicle: saline with Tween-80) was 95 % of control, the T/C (endpoint: mean survival time, dose: 200.0 mg/kg/injection, schedule: Q04DX003 (ip), vehicle: saline sonified) was 98 % of control and the T/C (endpoint: mean survival time, dose: 400.0 mg/kg/injection, schedule: Q01DX001 (ip), vehicle: saline with Tween-80) was 103 % of control and 94 % of control.

For `O=C(COc1ccc(Cl)c(Cl)c1)Nc1cccc(C(=O)CCl)c1`, the T/C [4] was 95 % of control, the T/C [5] was 101 % of control and the T/C [6] was 103 % of control.

For `O=C(c1ccccc1)C12CC3CC1C2C3`, the T/C (endpoint: mean survival time, dose: 100.0 mg/kg/injection, schedule: Q04DX003 (ip), vehicle: saline) was 97 % of control, the T/C (endpoint: mean survival time, dose: 200.0 mg/kg/injection, schedule: Q04DX003 (ip), vehicle: saline) was 100 % of control and the T/C (endpoint: mean survival time, dose: 400.0 mg/kg/injection, schedule: Q04DX003 (ip), vehicle: saline) was 89 % of control.

For `CCCCC/C=C/C/C=C\CCCCCCCC1=C(O)C(=O)C(OC)=C(OC)C1=O`, the T/C (endpoint: mean survival time, dose: 6.25 mg/kg/injection, schedule: Q01DX009 (ip), vehicle: saline with Tween-80) was 120 % of control, the T/C [7] was 106 % of control and the T/C [8] was 98 % of control. The T/C [9] was 102 % of control, the T/C [10] was 102 % of control and the T/C [11] was 106 % of control.

For `CCCCCC/C(C)=C(\C)c1cc(OC)cc(OC)c1`, the T/C [4] was 96 % of control and the T/C [5] was 100 % of control.

For `O=CNNC=O`, the T/C [10] was 94 % of control, the T/C [4] was 107 % of control and the T/C [11] was 92 % of control. The T/C [5] was 96 % of control, the T/C (endpoint: mean survival time, dose: 400.0 mg/kg/injection, schedule: Q01DX009 (ip), vehicle: saline with Tween-80) was 97 % of control and the T/C [6] was 100 % of control.

In the case of `CCOc1ccccc1/C=C1\N=C(c2ccc(Cl)cc2)OC1=O`, the T/C [1] is reported as 94 % of control, the T/C [2] is reported as 98 % of control and the T/C [3] is reported as 94 % of control.

`O=C1C(c2ccccc2)=C(c2ccccc2)c2c(-c3ccccc3)ccc(-c3ccccc3)c21` was tested, and the T/C [4] was 89 % of control, the T/C [5] was 100 % of control and the T/C [6] was 94 % of control.
